Measurements taken from ChEMBL document CHEMBL1221241, “Discovery of tetrahydroisoquinoline (THIQ) derivatives as potent and orally bioavailable LFA-1/ICAM-1 antagonists” (Bioorg Med Chem Lett, 2010).

Experiments:
[1] = molecular target: Intercellular adhesion molecule (ICAM-1), Integrin alpha-L/beta-2 (Homo sapiens, UniProt P05107+P05362+P20701); experiment: Inhibition of LFA1/ICAM1 interaction in human Hut-78 cells by cell migration assay; assay type: cell-based
[2] = Cmax in C57BL/6 mouse at 20 mg/kg, po; assay type: ADME, organism-based; set-up: dose 20 mg/kg, route oral; conditions: in vivo
[3] = Clearance in Sprague-Dawley rat at 5 mg/kg, iv; assay type: ADME, organism-based; set-up: dose 5 mg/kg, route intravenous; conditions: in vivo
[4] = Oral bioavailability in C57BL/6 mouse at 20 mg/kg; assay type: ADME, organism-based; conditions: in vivo
[5] = Half life in Sprague-Dawley rat at 5 mg/kg, iv; assay type: ADME, organism-based; set-up: dose 5 mg/kg, route intravenous; conditions: in vivo
[6] = AUC in Sprague-Dawley rat at 5 mg/kg, iv; assay type: ADME, organism-based; set-up: dose 5 mg/kg, route intravenous; conditions: plasma
[7] = Apparent permeability of the compound from apical to basolateral side in MDCK cells; assay type: ADME, cell-based, Canis lupus familiaris; conditions: dog
[8] = Tmax in C57BL/6 mouse at 100 mg/kg, po; assay type: ADME, organism-based; set-up: dose 100 mg/kg, route oral; conditions: in vivo
[9] = Tmax in Sprague-Dawley rat at 20 mg/kg, po; assay type: ADME, organism-based; set-up: dose 20 mg/kg, route oral; conditions: in vivo
Mus musculus [10] = experiment: Reduction of neutrophil migration in po dosed thioglycollate-induced C57BL/6 mouse peritonitis model administered 15 mins before thioglycollate challenge measured after 4 hrs; assay type: functional
[11] = AUClast in C57BL/6 mouse at 100 mg/kg, po; assay type: ADME, organism-based; set-up: time 0 - last, dose 100 mg/kg, route oral; conditions: plasma
[12] = Tmax in C57BL/6 mouse at 20 mg/kg, po; assay type: ADME, organism-based; set-up: dose 20 mg/kg, route oral; conditions: in vivo
[13] = Apparent permeability of the compound from basolateral to apical side in MDCK cells; assay type: ADME, cell-based, Canis lupus familiaris; conditions: dog
[14] = AUClast in Sprague-Dawley rat at 20 mg/kg, po; assay type: ADME, organism-based; set-up: time 0 - last, dose 20 mg/kg, route oral; conditions: plasma
[15] = Oral bioavailability in Sprague-Dawley rat at 20 mg/kg; assay type: ADME, organism-based; conditions: in vivo
[16] = Cmax in C57BL/6 mouse at 100 mg/kg, po; assay type: ADME, organism-based; set-up: dose 100 mg/kg, route oral; conditions: in vivo
[17] = AUClast in C57BL/6 mouse at 20 mg/kg, po; assay type: ADME, organism-based; set-up: time 0 - last, dose 20 mg/kg, route oral; conditions: plasma
[18] = Cmax in Sprague-Dawley rat at 20 mg/kg, po; assay type: ADME, organism-based; set-up: dose 20 mg/kg, route oral; conditions: in vivo
[19] = Oral bioavailability in Sprague-Dawley rat at 100 mg/kg; assay type: ADME, organism-based; conditions: in vivo
Mus musculus [20] = experiment: Reduction of neutrophil migration in iv dosed thioglycollate-induced C57BL/6 mouse peritonitis model administered 15 mins before thioglycollate challenge measured after 4 hrs; assay type: functional

Intercellular adhesion molecule (ICAM-1), Integrin alpha-L/beta-2, sequence (P20701 whole entry): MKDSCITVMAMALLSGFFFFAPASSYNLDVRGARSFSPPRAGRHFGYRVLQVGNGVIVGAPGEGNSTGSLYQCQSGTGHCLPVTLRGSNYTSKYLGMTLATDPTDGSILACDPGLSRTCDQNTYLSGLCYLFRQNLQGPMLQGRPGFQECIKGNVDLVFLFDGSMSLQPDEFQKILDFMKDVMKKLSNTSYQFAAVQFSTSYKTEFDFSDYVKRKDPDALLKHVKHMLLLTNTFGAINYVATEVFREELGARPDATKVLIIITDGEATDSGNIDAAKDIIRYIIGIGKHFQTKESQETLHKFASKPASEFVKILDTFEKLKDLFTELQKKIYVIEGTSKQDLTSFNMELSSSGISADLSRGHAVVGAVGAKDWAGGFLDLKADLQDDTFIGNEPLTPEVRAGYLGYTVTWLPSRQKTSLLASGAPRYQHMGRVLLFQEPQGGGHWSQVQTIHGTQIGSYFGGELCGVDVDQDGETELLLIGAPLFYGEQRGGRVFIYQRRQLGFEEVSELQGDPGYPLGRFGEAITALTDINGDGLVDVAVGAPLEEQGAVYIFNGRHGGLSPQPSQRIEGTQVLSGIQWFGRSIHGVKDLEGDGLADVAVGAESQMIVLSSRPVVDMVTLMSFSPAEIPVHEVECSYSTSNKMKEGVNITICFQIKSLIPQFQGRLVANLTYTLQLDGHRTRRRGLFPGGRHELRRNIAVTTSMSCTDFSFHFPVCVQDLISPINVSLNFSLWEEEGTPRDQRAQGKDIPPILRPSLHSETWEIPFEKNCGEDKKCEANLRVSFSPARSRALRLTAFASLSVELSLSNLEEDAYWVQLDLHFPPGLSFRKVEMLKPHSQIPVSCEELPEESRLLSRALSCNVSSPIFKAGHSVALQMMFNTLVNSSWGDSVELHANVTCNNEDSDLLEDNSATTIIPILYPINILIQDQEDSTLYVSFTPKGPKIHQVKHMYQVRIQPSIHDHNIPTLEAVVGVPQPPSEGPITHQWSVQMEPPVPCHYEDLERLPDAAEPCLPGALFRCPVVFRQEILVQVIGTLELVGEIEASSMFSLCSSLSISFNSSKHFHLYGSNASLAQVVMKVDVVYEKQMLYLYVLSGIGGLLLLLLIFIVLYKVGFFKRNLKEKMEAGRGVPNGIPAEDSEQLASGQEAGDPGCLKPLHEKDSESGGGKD
Intercellular adhesion molecule (ICAM-1), Integrin alpha-L/beta-2, sequence (P05362 whole entry): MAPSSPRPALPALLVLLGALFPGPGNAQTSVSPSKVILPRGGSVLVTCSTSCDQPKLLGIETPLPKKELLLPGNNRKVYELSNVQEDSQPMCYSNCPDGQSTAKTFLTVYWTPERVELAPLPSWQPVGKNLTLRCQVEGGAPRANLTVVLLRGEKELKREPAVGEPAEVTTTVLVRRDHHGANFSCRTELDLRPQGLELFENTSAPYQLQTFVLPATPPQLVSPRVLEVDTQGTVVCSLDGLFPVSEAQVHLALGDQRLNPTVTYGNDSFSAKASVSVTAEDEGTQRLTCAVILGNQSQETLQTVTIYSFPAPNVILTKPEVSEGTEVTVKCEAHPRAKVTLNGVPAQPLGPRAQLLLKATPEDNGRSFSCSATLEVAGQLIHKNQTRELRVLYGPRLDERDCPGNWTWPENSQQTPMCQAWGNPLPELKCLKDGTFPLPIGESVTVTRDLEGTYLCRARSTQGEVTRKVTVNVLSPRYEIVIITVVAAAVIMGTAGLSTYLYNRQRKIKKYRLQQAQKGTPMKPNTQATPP
Intercellular adhesion molecule (ICAM-1), Integrin alpha-L/beta-2, sequence (P05107 whole entry): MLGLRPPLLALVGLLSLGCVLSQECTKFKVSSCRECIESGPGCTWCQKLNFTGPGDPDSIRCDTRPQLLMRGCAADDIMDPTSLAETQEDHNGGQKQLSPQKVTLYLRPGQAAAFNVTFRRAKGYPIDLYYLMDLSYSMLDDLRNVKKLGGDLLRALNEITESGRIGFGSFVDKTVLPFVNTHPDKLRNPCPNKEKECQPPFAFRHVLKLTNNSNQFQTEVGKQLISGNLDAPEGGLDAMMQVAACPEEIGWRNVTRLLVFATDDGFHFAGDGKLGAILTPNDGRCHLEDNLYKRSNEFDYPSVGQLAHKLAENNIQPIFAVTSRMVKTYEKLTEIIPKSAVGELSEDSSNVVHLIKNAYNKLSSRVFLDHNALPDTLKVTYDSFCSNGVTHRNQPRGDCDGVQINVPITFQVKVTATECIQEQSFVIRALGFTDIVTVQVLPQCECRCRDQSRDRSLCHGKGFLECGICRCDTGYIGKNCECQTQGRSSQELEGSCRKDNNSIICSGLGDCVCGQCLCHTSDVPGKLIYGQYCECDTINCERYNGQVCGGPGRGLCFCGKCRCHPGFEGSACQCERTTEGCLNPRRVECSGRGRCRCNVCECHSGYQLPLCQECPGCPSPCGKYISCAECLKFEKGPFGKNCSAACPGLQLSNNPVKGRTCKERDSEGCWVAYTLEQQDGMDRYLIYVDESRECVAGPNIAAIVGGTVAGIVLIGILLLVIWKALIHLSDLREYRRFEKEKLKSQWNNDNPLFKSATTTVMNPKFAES

SMILES | IC50 [1] [nM] | clearance [3] [mL/min/kg] | half-life [5] [h] | AUC [6] [ng·h/mL] | further results
CC(=O)NC[C@H](NC(=O)c1c(Cl)cc2c(c1Cl)CCN(C(=O)c1ccc(Cl)cc1)C2)C(=O)O | 620 |  |  |  | 
O=C(N[C@@H](Cc1cccc(O)c1)C(=O)O)c1c(Cl)cc2c(c1Cl)CCN(C(=O)c1ccc(Cl)cc1)C2 | > 1000 |  |  |  | 
CCOC(=O)[C@H](CNC(=O)c1cccs1)NC(=O)c1c(Cl)cc2c(c1Cl)CCN(C(=O)c1ccc3ccoc3c1)C2 |  | 5 | 2.8 | 16800 | Cmax [2]: 2120 ng/mL; bioavailability [4]: 27%; Papp A→B [7]: 8.5 ×10⁻⁶ cm/s; Tmax [8]: 1 h; Tmax [9]: 0.8 h; Activity (Mus musculus [10]): Dose-dependent effect; ED50 (Mus musculus [10]; C57BL/6, po): 6.4 mg/kg; AUC(0-t) [11]: 31900 ng·h/mL; Tmax [12]: 0.8 h; Papp B→A [13]: 10 ×10⁻⁶ cm/s; AUC(0-t) [14]: 13900 ng·h/mL; bioavailability [15]: 18%; Cmax [16]: 8460 ng/mL; AUC(0-t) [17]: 5540 ng·h/mL; Cmax [18]: 3400 ng/mL; bioavailability [19]: 31%
O=C(NC[C@H](NC(=O)c1c(Cl)cc2c(c1Cl)CCN(C(=O)c1ccc(Cl)cc1)C2)C(=O)O)c1cccs1 | 22 | 31 | 1.4 | 580 | 
O=C(N[C@@H](CNC(=O)C1CCCCC1)C(=O)O)c1c(Cl)cc2c(c1Cl)CCN(C(=O)c1ccc(Cl)cc1)C2 | 540 |  |  |  | 
O=C(NC[C@H](NC(=O)c1c(Cl)cc2c(c1Cl)CCN(C(=O)c1ccc3ccoc3c1)C2)C(=O)O)c1cccs1 | 9 | 3.2 | 3 | 5500 | Papp A→B [7]: 0.34 ×10⁻⁶ cm/s; Papp B→A [13]: 0.3 ×10⁻⁶ cm/s; Activity (Mus musculus [20]): Dose-dependent effect; ED50 (Mus musculus [20]; C57BL/6, iv): 0.038 mg/kg
O=C(NC[C@H](NC(=O)c1c(Cl)cc2c(c1Cl)CCN(C(=O)C1CCCCC1)C2)C(=O)O)c1cccs1 | > 1000 |  |  |  | 
O=C(NC[C@H](NC(=O)c1c(Cl)cc2c(c1Cl)CCN(C(=O)c1cc3ccccc3o1)C2)C(=O)O)c1cccs1 | 5 | > 60 | 1.5 | 1260 | 
NC[C@H](NC(=O)c1c(Cl)cc2c(c1Cl)CCN(C(=O)c1ccc(Cl)cc1)C2)C(=O)O | > 1000 |  |  |  | 
O=C(N[C@@H](Cc1c[nH]c2ccccc12)C(=O)O)c1c(Cl)cc2c(c1Cl)CCN(C(=O)c1ccc(Cl)cc1)C2 | 810 |  |  |  | 
O=C(NC[C@H](NC(=O)c1c(Cl)cc2c(c1Cl)CCN(C(=O)c1ccccc1)C2)C(=O)O)c1cccs1 | 79 |  |  |  | 
O=C(NC[C@H](NC(=O)c1c(Cl)cc2c(c1Cl)CCN(C(=O)/C=C/c1ccco1)C2)C(=O)O)c1cccs1 | 25 |  |  |  | 
O=C(NC[C@H](NC(=O)c1c(Cl)cc2c(c1Cl)CCN(C(=O)c1cccc(Cl)c1)C2)C(=O)O)c1cccs1 | 66 | > 60 | 1.1 | 120 | 
O=C(NC[C@H](NC(=O)c1c(Cl)cc2c(c1Cl)CCN(C(=O)c1ccc3c(c1)OCC3)C2)C(=O)O)c1cccs1 | 13 | 19 | 1.1 | 4870 | 
Cc1cccc(C(=O)N2CCc3c(cc(Cl)c(C(=O)N[C@@H](CNC(=O)c4cccs4)C(=O)O)c3Cl)C2)c1 | 90 |  |  |  | 
O=C(NC[C@H](NC(=O)c1c(Cl)cc2c(c1Cl)CCN(C(=O)c1ccc(Cl)cc1)C2)C(=O)O)c1ccco1 | 51 |  |  |  | 
O=C(NC[C@H](NC(=O)c1c(Cl)cc2c(c1Cl)CCN(C(=O)c1ccc(Cl)cc1)C2)C(=O)O)c1ccccc1 | 29 | > 60 | 0.7 | 487 | 
Cc1ccc(C(=O)N2CCc3c(cc(Cl)c(C(=O)N[C@@H](CNC(=O)c4cccs4)C(=O)O)c3Cl)C2)cc1 | 10 |  |  |  | 
CC(=O)N1CCc2c(cc(Cl)c(C(=O)N[C@@H](CNC(=O)c3cccs3)C(=O)O)c2Cl)C1 | > 1000 |  |  |  | 
Cc1ccccc1C(=O)N1CCc2c(cc(Cl)c(C(=O)N[C@@H](CNC(=O)c3cccs3)C(=O)O)c2Cl)C1 | 460 |  |  |  | 
